Assay results from paper PMC9861180, “Nintedanib-αVβ6 Integrin Ligand Conjugates Reduce TGFβ-Induced EMT in Human Non-Small Cell Lung Cancer” (International Journal of Molecular Sciences, 2023).
“Also recorded” adds a separate entry of the source.

How the values were obtained:
TGFβ-treated A549 cells [1] = assay: Clonogenic assay; type: cell-based, human; settings: sorted fluorescence-positive TGFβ-treated A549 cells after 5 μM 24 h; 2 weeks growth
Procedure: (A) After incubation, cells were sorted (BDMelody) and isolated cells from the selected population (indicated as P4) were seeded at low density (1000 cells/6 well petri dishes). (B) Number of colonies obtained after 2 weeks growth in standard media. (C) Quantification of colonies.
A549 lung adenocarcinoma cells were grown in the presence of TGFβ for 48 h. […] At the end of the incubation, cells were sorted using a fluorescence activated cell sorter (Melody, Becton Dickinson, Bioscience, Eysins, Switzerland). […] Activation of the labelled cells was provided by the violet laser (ex = 405 nm) while sorting of the activated cells was performed by their emitted wavelength at 480 nm (detection filter 450/50, using the BV480 channel). Isolated cells (1 × 10^3) were seeded in a FN-coated 6 well dishes. These isolated cells were cultured for 2 weeks. The medium was changed every 4 days until the emergence of colonies. The colonies were fixed and stained with Diff-Quick solution.

E-cadherin = E-cadherin expression, Western blot; type: cell-based, human; settings: TGFβ-treated A549 cells, 5 μM, 24 h
Procedure: Left panel, representative Western blot of E-cadherin protein expression.
Western blot analysis was performed on whole-cell lysates of A549 cells, exposed for 48 h to TGFβ treatment and subsequently exposed to 5 µM concentrations of different compounds. After 24 h incubation, media were rapidly removed and cell monolayers were lysed as previously described in RIPA lysis buffer, with the addition of proteinase inhibitor cocktail (04693124001 Roche Merk Life Science S.r.l., Milano, Italy) for 30 min in ice [35]. Protein content was quantified, and forty-fifty micrograms of total proteins were separated on Bolt® Bis-Tris Plus gels 4–12% (Life Technologies, Monza, Italy). Fractionated proteins were transferred from the gel to a PVDF nitrocellulose membrane using iBlot 2 system (Life Technologies, Monza, Italy). Membranes were blocked for 5 min at room temperature, with EveryBlot Biorad blocking buffer (Life Technologies, Monza, Italy). Subsequently, the membranes were probed at 4 °C overnight with appropriate primary antibodies diluted in a solution of 1:1 Odyssey blocking buffer/T-PBS buffer, washed four times with PBS-Tween 0.1% solution, and probed with the secondary IRDye antibodies according to manufacturering instructions. The protein bands were analyzed by the Odyssey Infrared Imaging System (Lycor Bioscience) using software for protein quantification. […]

TGFβ-treated A549 cells [2] = assay: F-actin cytoskeleton by confocal analysis (rhodamine-phalloidin); type: cell-based, human; settings: 5 μM, 24 h
Procedure: After incubation, cells were fixed and processed for fluorescence confocal imaging. The cell cytoskeleton was stained with rhodamine-conjugated phalloidin. Image dimensions: 180 × 180 μm, scale bar 50 μm. Experiments were performed at least three times. (C) Quantification of disassembled cytoskeleton expressed as the percentage of cells with point-like fluorescence signals/total cells per field. Data are representative of three independent experiments. * p < 0.05, and ** p < 0.001 vs. TGFβ treated cells.
A549 cells, exposed for 48 h to TGFβ treatment, were grown on fibronectin-coated (10 µg/mL) (sc-29011 SantaCruz, D.B.A., Milano Italy) glass coverslips in 6-well plates for 2 h, after which adherent cells were exposed to the different treatments, in the absence of FCS, for 24h. After incubation, the culture medium was removed, cells were washed with PBS, and fixed 30 min at 4 °C with 3.7% paraformaldehyde. Cells were permeabilized for 15 min with PBS 0.1% Tryton X-100 at room temperature, and then incubated 1 h at room temperature with blocking buffer (0.1% Tryton X-100 and 5.5% horse serum PBS). […] A single composite image was obtained by superimposition of 20 optical sections for each sample analyzed.

K562 cells = assay: Cell internalization by flow cytometry, αvβ6-negative K562; type: cell-based, human; settings: 5 µM
Description: In these cells, 74% of cells were positive after exposure to compound 1, whilst after exposure to compounds 2 and 3, positive cells ranged between 43.8 and 49% (Figure 4A). […] In addition, we investigated the internalization in αvβ6-negative K562 cells. […] Finally, two other αvβ6 integrin-expressing cell lines were used to evaluate the internalization of these compounds, namely the human melanoma cells SSM2c (Figure S4B) and the L929 murine fibroblasts (Figure S5B).
Briefly, A549 cells were seeded in standard medium (2 × 10^6 cells/100 mm Petri dishes, Sarstedt), and after adhesion, cells were grown in the presence or in the absence of TGFβ (10 ng/mL) for 48 h. […] After 24 h, cells were gently detached using Accutase (ECB3056D, Euroclone, Pero, Milano, Italy) or trypsin and the fluorescence, associated with different cell populations, was evaluated using the BV480 channel of the FACSCanto BD instrument (using 405 nm laser). Untreated cells were used as the negative control. The same procedure was applied to evaluate the internalization in K562, SSM2c, and L929 cells.
3. Expression of αvβ6 integrin receptor in K562 human erythroleukemic cells and internalization of conjugated compounds or nintedanib
Figure S3. Expression of αvβ6 integrin receptor in K562 human erythroleukemia cells (A). […]
assessed by flow cytometry measurements at 5 µM concentration. […]
as assessed by flow cytometry. […]

[3] = tested on: α-smooth muscle actin (α-SMA); assay: α-smooth muscle actin protein expression, Western blot; type: cell-based, human; settings: TGFβ-treated A549 cells, 5 μM, 24 h
Procedure: Data are expressed as means ± SEM of fold increment compared to untreated cells normalized to α-tubulin.
Western blot analysis was performed on whole-cell lysates of A549 cells, exposed for 48 h to TGFβ treatment and subsequently exposed to 5 µM concentrations of different compounds. After 24 h incubation, media were rapidly removed and cell monolayers were lysed as previously described in RIPA lysis buffer, with the addition of proteinase inhibitor cocktail (04693124001 Roche Merk Life Science S.r.l., Milano, Italy) for 30 min in ice [35]. Protein content was quantified, and forty-fifty micrograms of total proteins were separated on Bolt® Bis-Tris Plus gels 4–12% (Life Technologies, Monza, Italy). Fractionated proteins were transferred from the gel to a PVDF nitrocellulose membrane using iBlot 2 system (Life Technologies, Monza, Italy). Membranes were blocked for 5 min at room temperature, with EveryBlot Biorad blocking buffer (Life Technologies, Monza, Italy). […] The protein bands were analyzed by the Odyssey Infrared Imaging System (Lycor Bioscience) using software for protein quantification. […]

TGFβ-treated A549 cells [4] = assay: Invasion assay through fibronectin-coated filters; type: cell-based; settings: Homo sapiens, 24 h, read-out: migration inhibition (invasiveness) with respect to control
Procedure: The first assay envisaged the evaluation of cellular invasiveness of TGFβ-treated A549 cells by measuring the capacity of cells to migrate through fibronectin-coated filters.
Cells were allowed to migrate towards fibronectin-coated filters (10 μg/μL). Right panel, quantification of invasiveness. Data are percentages of migrated cells compared to untreated cells and expressed as mean value ± SEM of at least three independent experiments. * p < 0.05 and ** p < 0.001 vs. untreated cells. […] Experiments were performed at least three times.
Invasiveness of A549 cells was determined in vitro on fibronectin-precoated polycarbonate inserts (Sarstedt 83.3932.800, 8µm pore size, 0.3 cm^2 growth surface). Briefly, 50 µL of 10 μg/mL of fibronectin solution were seeded on each insert and allowed to dry in sterile conditions (1.6 µg/cm^2). A549 human lung carcinoma cells were grown in the presence of TGFβ for 48 h. After incubation, 3.5 × 10^4 cells were exposed to the different compounds, in serum-free medium (at 5 µM concentration), seeded in the upper compartment of the insert, and were free to perform in the absence of any chemoattractant. Inserts were incubated for 24 h at 37 °C in 10% CO2 in air. […] Photographs of randomly chosen fields were taken, and migrated cells were counted in 4 field/photograph.

[5] = tested on: tumor spheroids of TGFβ-treated A549 cells and murine L929 fibroblasts; assay: Inhibition of 3D tumor spheroid growth; type: cell-based, human; settings: 5 µM, 72 h, vs untreated spheroids
Procedure: Heterogeneous spheroids of tumor cells and fibroblasts were generated using the hanging drop technique to mimic the complex three-dimensional environment of tumor tissues. […] Next, the fluorescence intensities associated with each cell population were analyzed as previously described.
Hanging drop tumor spheroids were prepared starting from 1:1 mixed cell population (1000 cells/25μL) of TGF𝛽-treated A549 cells and murine L929 fibroblasts. […] (C) Quantitative analysis of inhibition of 3D growth and (D) 3D spheroid internalization of the compounds after 72 h exposure. Data are representative of three independent experiments (n = 6) and expressed as means ± SEM. * p < 0.05 vs. untreated spheroids.
A549 cells, exposed for 48 h to TGFβ treatment, were mixed in a 1:1 ratio with murine L929 fibroblast (40,000/mL) in order to obtain 3D multicellular tumor spheroids (MCTS) resembling cellular heterogenicity of the neoplastic lesion. […] After one week, multicellular tumor spheroids were completely formed. Tumor spheroids were next used in different experimental procedures. […] For 3D growth inhibition, spheroids were placed on 2% agarose coated dishes in complete medium containing the different treatments at 5 µM concentration. Spheroid areas were analysed and compared to time 0 and used to evaluate the inhibition of 3D growth (yellow lines). Images of all spheroids were taken daily using the EVOS XL Core Imaging System with a 10x objective (Thermofisher Scientific, Waltham, MA, USA ). All images were analysed using the open-source software ImageJ (1.52a, National Institutes of Health, Bethesda, MD, USA).

TGFβ-treated A549 cells [6] = assay: cells; type: cell-based, human
Procedure: A549 cell viability was assessed using MTT (3-(4,5-dimethylthiazol-2-yl)-2,5-diphenyltetrazolium bromide) tetrazolium reduction assay (M5655, Sigma Aldrich, Milan, Italy), as described in [58]. Briefly, A549 cells were treated for 48 h in complete medium with TGFβ (10 ng/mL). Next, cells (2.5 × 10^3) were plated into 96-multiwell plates in 100 µL of complete medium. After adhesion, the compounds were added to the medium at different concentrations. After 24 h exposure, the medium was replaced with 100 µL MTT reagent in each well, and plates were incubated at 37 °C. After 2 h, MTT was removed, and the blue MTT–formazan product was solubilized with dimethyl sulfoxide (DMSO, Sigma Aldrich). The absorbance of the formazan solution was read at 595 nm using the microplate reader (Bio-Rad, Milan, Italy). Inhibition of cell proliferation was calculated by the IC50 calculator (AAT Bioquest, Inc., Pleasanton, CA, USA, https://www.aatbio.com/ (accessed on 1 July 2022)).

[7] = tested on: tumor spheroids of TGFβ-treated A549 cells and murine L929 fibroblasts; assay: Tumor spheroid 2D flat surface migration and growth; type: cell-based, human; settings: 5 µM, fibronectin-coated flat surface
Procedure: Heterogeneous spheroids of tumor cells and fibroblasts were also used to evaluate the ability of the compounds to inhibit 2D flat surface migration and growth once the spheroids were allowed to attach to a suitable surface (Figure 8).
Hanging drop tumor spheroids were allowed to spread on a 2D fibronectin-coated flat surface. […] Data are representative of three independent experiments (n = 6) and expressed as means ± SEM. * p < 0.05 vs. untreated spheroids.
A549 cells, exposed for 48 h to TGFβ treatment, were mixed in a 1:1 ratio with murine L929 fibroblast (40,000/mL) in order to obtain 3D multicellular tumor spheroids (MCTS) resembling cellular heterogenicity of the neoplastic lesion. […] After one week, multicellular tumor spheroids were completely formed. Tumor spheroids were next used in different experimental procedures. We evaluated 2D flat surface inhibition of migration and growth, and the inhibition of 3D growth. For 2D flat surface migration and growth inhibition assays, the spheroids were placed on regular culture dishes and allowed to spread and grow in complete medium containing different compounds at 5 µM concentration. The areas of cell spreading were used as parameters for migration (red lines), while the areas of the spheroid core were used as parameters for 2D growth (yellow lines). For 3D growth inhibition, spheroids were placed on 2% agarose coated dishes in complete medium containing the different treatments at 5 µM concentration. Spheroid areas were analysed and compared to time 0 and used to evaluate the inhibition of 3D growth (yellow lines). Images of all spheroids were taken daily using the EVOS XL Core Imaging System with a 10x objective (Thermofisher Scientific, Waltham, MA, USA ). All images were analysed using the open-source software ImageJ (1.52a, National Institutes of Health, Bethesda, MD, USA).

COC(=O)c1ccc2c(c1)NC(=O)/C2=C(\Nc1ccc(N(C)C(=O)CN2CCN(C)CC2)cc1)c1ccccc1 [nintedanib, Nintedanib]
reduction of colony formation compared to untreated cells (TGFβ-treated A549 cells [1]): 50% | E-cadherin expression (E-cadherin): enhanced | F-actin bundle disassembly (TGFβ-treated A549 cells [2]): more significant reduction in the assembly of F-actin filaments | fluorescence-positive cells (compound internalization) (K562 cells): 95–100% | α-SMA protein expression [3]: reduced by half | inhibition at 5 µM (TGFβ-treated A549 cells [4]): 80% | inhibition of 3D spheroid growth [5]: inhibited significantly | inhibition of cell proliferation (in words) (TGFβ-treated A549 cells [6]; 0.5-50 μM, 24 h (Figure S8)): concentration-dependent inhibition | IC50 (TGFβ-treated A549 cells [6]; Homo sapiens, A549, 24 h, read-out: IC50, inhibition of cell proliferation (MTT)): 7.5 µM | inhibition of cell proliferation (in words) (TGFβ-treated A549 cells [6]; TGFβ-treated A549 cells, concentrations >10 μM): almost completely inhibited | 2D flat surface migration of tumor spheroids [7]: significantly impaired; also recorded: strong inhibition | 2D growth of tumor spheroids (spheroid core) [7]: significantly impaired
